Several values for one entry are separate records, joined by “and”; a condition that tells them apart may be missing. Equal values may be shown once.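 Following 48 hours of exposure in 96-well plates, responses at five concentrations were used to interpolate endpoints linearly. GI50 = concentration required for 50% inhibition of growth. At the TGI there is no net growth.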
How the values were obtained:
Test in all cases: NCI tumour cell line growth inhibition, 48 h
SK-MEL-5 melanoma = system: SK-MEL-5 melanoma
RPMI-8226 leukemia = system: RPMI-8226 leukemia
COLO 205 colon = system: COLO 205 colon
DMS 114 small cell lung = system: DMS 114 small cell lung
A549 NSCLC = system: A549 NSCLC
HOP-18 NSCLC = system: HOP-18 NSCLC
SR leukemia = system: SR leukemia
NCI-H460 lung = system: NCI-H460 lung
PC-3 prostate = system: PC-3 prostate
BT-549 breast = system: BT-549 breast

| Compound | TGI (SK-MEL-5 melanoma) | TGI (RPMI-8226 leukemia) | TGI (COLO 205 colon) | TGI (DMS 114 small cell lung) | TGI (A549 NSCLC) | TGI (HOP-18 NSCLC) | TGI (SR leukemia) | TGI (NCI-H460 lung) | GI50 (PC-3 prostate) | TGI (PC-3 prostate) | GI50 (SK-MEL-5 melanoma) | GI50 (BT-549 breast) | TGI (BT-549 breast) | GI50 (RPMI-8226 leukemia) | GI50 (COLO 205 colon) | GI50 (SR leukemia) | GI50 (NCI-H460 lung) | GI50 (A549 NSCLC) | GI50 (DMS 114 small cell lung) |
| --- | --- | --- | --- | --- | --- | --- | --- | --- | --- | --- | --- | --- | --- | --- | --- | --- | --- | --- | --- |
| CCCCCCCCCCCCCCCC(=O)OCC1OC(n2cc(F)c(=O)[nH]c2=O)C(N)C(O)C1O (configuration not stated) | 33.1 µM | 51.3 µM | 34 µM | 32.8 µM | 33.1 µM | 30.7 µM |  |  |  |  |  |  |  |  |  |  |  |  |  |
| O=C1C(c2ccccc2)=C(O)c2cccc3cccc1c23 | > 100 µM | > 100 µM | > 100 µM | > 100 µM | > 100 µM | > 100 µM | > 100 µM | > 100 µM |  |  |  |  |  |  |  |  |  |  |  |
| CCOC(=O)/C(C1=NCCN1)=C(\O)c1ccccc1 | > 100 µM | > 100 µM | > 100 µM |  | > 100 µM | > 100 µM | > 100 µM | > 100 µM |  |  |  |  |  |  |  |  |  |  |  |
| COc1cc2c[n+](C)c3c4cc(OC)c(OC(C)C)cc4ccc3c2cc1OC | > 100 µM | > 100 µM | 31.2 µM | 26.7 µM | > 100 µM | > 100 µM | > 100 µM | > 100 µM |  |  |  |  |  |  |  |  |  |  |  |
| CC1=C(c2cccc(O)c2)[C@H](c2ccc(OCCN3CC(CF)C3)cc2)Oc2ccc(O)cc21 | 12.8 µM | 27.1 µM | 23.1 µM |  | 23.8 µM |  | 36.2 µM | 18.2 µM | 5.8 µM | 20.9 µM | 3.58 µM | 10.5 µM | 23.2 µM | 8.11 µM | 6.34 µM | 3.76 µM | 4.94 µM | 7.81 µM |  |
| Cc1c(Cl)cccc1C(=O)Nc1nc2c(s1)CN(C(=O)c1ccc(C(F)(F)F)cc1)CC2 | 6.01 µM | > 34.9 µM | 0.762 µM |  | > 50 µM |  | > 50 µM | > 20.4 µM | 0.117 µM | > 50 µM | 0.175 µM | 0.331 µM | 22.9 µM | 0.198 µM | 0.164 µM | 0.0294 µM | 0.158 µM | 0.124 µM |  |
| CC(CN(C)C)/C(=N\Nc1ccccc1)c1ccccc1 (configuration not stated) | 17.5 µM | 67.6 µM | 2.55 µM | 20.5 µM | 2.4 µM | 67.3 µM | 23.1 µM | 15.5 µM |  |  |  |  |  |  |  |  |  |  |  |
| Cc1cccc(/C=N/NC(=S)N2CCCC2)n1 | 0.823 µM | > 100 µM |  |  | > 100 µM |  | 0.876 µM | > 42 µM | 0.581 µM |  |  | 3.02 µM | > 100 µM | 0.426 µM and 0.322 µM | 0.193 µM | 0.15 µM |  | 2.5 µM |  |
| Cc1cc(NCCCN(C)C)c2ccc3c(ccc4c(NCCCN(C)C)cc(C)nc43)c2n1 | 0.945 µM | 0.147 µM | 0.408 µM |  | 0.411 µM |  | > 100 µM | 0.441 µM | 0.199 µM | 0.609 µM | 0.275 µM | 1.85 µM | 3.53 µM | 0.0489 µM | 0.183 µM | 0.354 µM | 0.171 µM | 0.0643 µM |  |
| CCCCCCC[CH2][Sn]([CH2]CCCCCCC)([O]c1cccc2cccnc12)[O]c1cccc2cccnc12 | 3.21 µM | 2.84 µM | 3.41 µM | 3.08 µM | 12 µM |  |  | 10.7 µM |  |  | 1.65 µM |  |  | 0.625 µM | 1.86 µM |  | 3.12 µM | 3.18 µM | 1.39 µM |
| COC1CC(O[C@H]2CC[C@@]3(C)[C@H](CC[C@@H]4[C@@H]3CC[C@]3(C)[C@@H](C5=CC(=O)OC5)[C@@H](OC(C)=O)C[C@]43O)C2)OC(C)C1O (some centres not stated) | < 0.01 µM |  | < 0.01 µM |  | < 0.01 µM |  |  | < 0.01 µM | < 0.01 µM | < 0.01 µM | < 0.01 µM | < 0.01 µM | < 0.01 µM | < 0.01 µM | < 0.01 µM | < 0.01 µM | < 0.01 µM | < 0.01 µM |  |
| COc1ccc(CCN2CC=Cn3c2nc2ccccc2c3=O)cc1 | 0.154 µM | 43 µM | 0.0847 µM |  | > 49.1 µM |  | > 100 µM | 14.4 µM | 0.0308 µM | > 100 µM | 0.0265 µM | 0.0611 µM | 15.5 µM | 0.0415 µM | 0.0267 µM | 0.0354 µM | 0.0358 µM | 0.038 µM |  |
| CSc1nnc(CCC(=O)Nc2c(C)cccc2C)o1 | > 100 µM | > 100 µM | > 100 µM | > 100 µM | > 100 µM | > 100 µM |  | > 100 µM |  |  |  |  |  |  |  |  |  |  |  |
| CC(C)(C)C(=O)OCC1C(=O)OCC1C(=O)N1Cc2cc3ccccc3nc2C1 (configuration not stated) | 28.5 µM | 4.82 µM | 2.41 µM | 17.8 µM | 30.8 µM | 6.59 µM | 3.77 µM | 5.52 µM |  | 23 µM |  |  | 8.83 µM |  |  |  |  |  |  |
| CC(=O)Nc1ccc(S(=O)(=O)N/N=C/CN2C(=O)c3ccccc3C2=O)cc1 | > 100 µM | > 100 µM | > 100 µM | > 100 µM | > 100 µM |  | > 100 µM | > 100 µM |  |  |  |  |  |  |  |  |  |  |  |
| COc1cc2ccnc3c2c(c1OC)-c1coc(SC)c1-3 | > 100 µM | > 100 µM | > 100 µM |  | > 100 µM | > 100 µM | > 100 µM | > 100 µM |  |  |  |  |  |  |  |  |  |  |  |
| C=C1C(O)C2C(=C(CC)C13CC3)C(=O)C(C)(C)C2OC (configuration not stated) | > 100 µM | 68 µM | > 100 µM |  | > 100 µM |  | 68 µM | > 100 µM | 35.2 µM | > 100 µM | 42.6 µM | > 100 µM | > 100 µM | 20.6 µM | > 100 µM | 23.5 µM | 39.3 µM | 44.9 µM |  |
| CC(C)CCCC(C)[C@H]1CCC2[C@@H]3CCC4Cc5nc6c(nc5C[C@]4(C)C3CC[C@@]21C)CC1CC[C@@H]2C(CC[C@@]3(C)C2CC[C@@H]3C(C)CCCC(C)C)[C@@]1(C)C6 (some centres not stated) | > 100 µM | > 100 µM | > 100 µM |  | > 100 µM |  | > 100 µM | > 100 µM |  | > 100 µM |  |  | > 100 µM |  |  |  |  |  |  |
| C=C/C=C/NC(=O)OCc1ccccc1 | > 100 µM | > 100 µM | > 100 µM | > 100 µM | > 100 µM | > 100 µM | > 100 µM | > 100 µM |  |  |  |  |  |  |  |  |  |  |  |
